This is an account of results in patent US20200131132A1, “FARNESOID X RECEPTOR AGONISTS AND USES THEREOF” (Metacrine, Inc., priority 2017, published 2020).

Where only a bound is given, the exact number is not on record here.

For the assay, the target named is T1, hFXR (Homo sapiens, UniProt Q96RI1).
T1 construct: expressed in transfected cells; host or cells: CV-1 cells
T1 sequence (Q96RI1 1-486): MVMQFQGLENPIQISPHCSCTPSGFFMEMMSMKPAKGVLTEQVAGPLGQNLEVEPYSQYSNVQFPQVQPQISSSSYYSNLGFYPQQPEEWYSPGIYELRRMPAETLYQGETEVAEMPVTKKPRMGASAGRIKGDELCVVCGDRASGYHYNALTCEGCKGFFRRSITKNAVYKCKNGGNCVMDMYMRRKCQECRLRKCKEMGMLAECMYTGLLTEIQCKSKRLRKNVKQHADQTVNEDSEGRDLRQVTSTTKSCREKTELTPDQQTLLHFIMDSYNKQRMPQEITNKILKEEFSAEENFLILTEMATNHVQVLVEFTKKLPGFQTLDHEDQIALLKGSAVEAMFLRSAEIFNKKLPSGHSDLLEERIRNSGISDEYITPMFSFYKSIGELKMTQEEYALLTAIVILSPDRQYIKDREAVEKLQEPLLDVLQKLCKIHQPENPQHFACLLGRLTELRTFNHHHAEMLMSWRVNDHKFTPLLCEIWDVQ
T1 sequence (P19793 1-462 partner): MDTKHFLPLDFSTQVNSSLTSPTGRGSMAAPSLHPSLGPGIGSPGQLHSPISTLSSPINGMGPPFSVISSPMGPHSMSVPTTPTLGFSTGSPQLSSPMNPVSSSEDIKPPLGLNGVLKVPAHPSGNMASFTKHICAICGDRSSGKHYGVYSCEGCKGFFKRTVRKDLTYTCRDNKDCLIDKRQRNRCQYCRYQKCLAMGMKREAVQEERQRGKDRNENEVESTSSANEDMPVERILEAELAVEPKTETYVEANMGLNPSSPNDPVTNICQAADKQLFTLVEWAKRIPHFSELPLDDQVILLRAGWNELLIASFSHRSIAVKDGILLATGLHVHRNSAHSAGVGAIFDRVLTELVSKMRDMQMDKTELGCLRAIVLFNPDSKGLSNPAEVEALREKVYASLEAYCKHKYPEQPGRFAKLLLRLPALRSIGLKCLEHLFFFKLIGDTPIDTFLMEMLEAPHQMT
The experiment in a line: In Vitro FXR Assay (TK). The class given is cell-based. The conditions noted are these: CV-1 cells transfected with hFXR, hRXR, TK-ECRE-luc and pCMX-YFP; compounds incubated 18 hrs; luminescence. The method, then: CV-1 cells were seeded at a density of 2,000,000 cells in a T175 flask with DMEM+10% charcoal double-stripped FBS and incubated at 37° C. in 5% CO2 for 18 h (O/N).
After 18 h of incubation, the medium in the T175 flask was changed with fresh DMEM+10% charcoal super-stripped serum. In a polypropylene tube, 2500 μL OptiMEM (Life Technologies, Cat #31985-062) was combined with expression plasmids for hFXR, hRXR, TK-ECRE-luc and pCMX-YFP. The tube was then briefly vortexed and incubated at room temperature for 5 minutes. Transfection reagent (X-tremeGENE HP from Roche, Cat #06 366 236 001) was added to the OptiMEM/plasmid mixture vortexed and incubated at room temperature for 20 minutes. Following incubation, the transfection reagent/DNA mixture complex was added to cells in the T175 flask and the cells were incubated at 37° C. in 5% CO2 for 18 h (O/N).
Compounds were serially diluted in DMSO and added to transfected CV-1 cells. The cells were then incubated for 18 hrs. The next day cells were lysed and examined for luminescence.

As a reminder, the EC50 is the concentration needed to bring the measured effect to its halfway point. Low readings indicate an effect from little substance, high ones a need for much substance. `COc1ccc(-c2ccc(CN(C(=O)CC(C)(C)C)c3nccc4cc(CO)ccc34)cc2)cc1C` [Compound 2.01, N-(6-(Hydroxymethyl)isoquinolin-1-yl)-N-((4′-methoxy-3′-methyl-[1,1′-biphenyl]-4-yl)methyl)-3,3-dimethylbutanamide]: the EC50 was ≤ 1 µM. Turning to `COc1ccc(-c2ccc(CN(C(=O)CC(C)(C)C)c3nccc4c(Br)cccc34)cc2)cc1C` [Compound 4.07, N-(5-Bromoisoquinolin-1-yl)-N-((4′-methoxy-3′-methyl-[1,1′-biphenyl]-4-yl)methyl)-3,3-dimethylbutanamide], the EC50 was > 10 µM. As to `COc1ccc(-c2ccc(CN(C(=O)CC(C)(C)C)c3nccc4c3CCCC4)cc2)cc1C` [Compound 4.03, N-((4′-Methoxy-3′-methyl-[1,1′-biphenyl]-4-yl)methyl)-3,3-dimethyl-N-(5,6,7,8-tetrahydroisoquinolin-1-yl)butanamide], the EC50 lay within 1 to 10 µM.

In turn, `COc1ccc(-c2ccc(CN(C(=O)CC(C)(C)C)c3cncc4ccccc34)cc2)cc1C` [Compound 5, N-(Isoquinolin-4-yl)-N-((4′-methoxy-3′-methyl-[1,1′-biphenyl]-4-yl)methyl)-3,3-dimethylbutanamide] displayed an EC50 of 1 to 10 µM. Take `COc1cccc(-c2ccc3c(N(Cc4ccc(-c5ccc(OC)c(C)c5)cc4)C(=O)CC(C)(C)C)nccc3c2)n1` [Compound 15.01, N-((4′-Methoxy-3′-methyl-[1,1′-biphenyl]-4-yl)methyl)-N-(6-(6-methoxypyridin-2-yl)isoquinolin-1-yl)-3,3-dimethylbutanamide]: the EC50 was 1 to 10 µM. Take `COc1ccc2c(N(C[C@H]3CC[C@H](c4ccc(OC)c(C)c4)CC3)C(=O)CC(C)(C)C)nccc2c1` [Compound 1]: the EC50 is ≤ 1 µM. On to `COc1ccc(-c2ccc(CN(C(=O)CC(C)(C)C)c3nccc4cc(OCC(N)=O)ccc34)cc2)cc1C` [Compound 8.03, N-(6-(2-Amino-2-oxoethoxy)isoquinolin-1-yl)-N-((4′-methoxy-3′-methyl-[1,1′-biphenyl]-4-yl)methyl)-3,3-dimethylbutanamide], for which the EC50 was ≤ 1 µM. To `COc1ccc(-c2ccc(CN(C(=O)CC(C)(C)C)c3nccc4cc(OCC(=O)O)ccc34)cc2)cc1C` [Compound 29, 2-((1-(N-((4′-Methoxy-3′-methyl-[1,1′-biphenyl]-4-yl)methyl)-3,3-dimethylbutanamido)isoquinolin-6-yl)oxy)acetic acid] belongs > 10 µM.

As to `CNc1ccc2c(N(Cc3ccc(-c4ccc(OC)c(C)c4)cc3)C(=O)CC(C)(C)C)nccc2c1` [Compound 6.11, N-((4′-Methoxy-3′-methyl-[1,1′-biphenyl]-4-yl)methyl)-3,3-dimethyl-N-(6-(methylamino)isoquinolin-1-yl)butanamide], the EC50 was ≤ 1 µM.

For the compound `COc1ccc(-c2ccc(CN(C(=O)CC(C)(C)C)c3nccc4cc(-c5nccs5)ccc34)cc2)cc1C` [Compound 14.01, N-((4′-Methoxy-3′-methyl-[1,1′-biphenyl]-4-yl)methyl)-3,3-dimethyl-N-(6-(thiazol-2-yl)isoquinolin-1-yl)butanamide], the EC50 is ≤ 1 µM. For `COc1ccc(-c2ccc(CN(C(=O)CC(C)(C)C)c3cccc4ccncc34)cc2)cc1C` [Compound 5.02, N-(Isoquinolin-8-yl)-N-((4′-methoxy-3′-methyl-[1,1′-biphenyl]-4-yl)methyl)-3,3-dimethylbutanamide] the value was > 10 µM; for `COc1ccc(-c2ccc(CN(C(=O)CC(C)(C)C)c3nccc4cc(OCCCO)ccc34)cc2)cc1C` [Compound 8, N-(6-(3-Hydroxypropoxy)isoquinolin-1-yl)-N-((4′-methoxy-3′-methyl-[1,1′-biphenyl]-4-yl)methyl)-3,3-dimethylbutanamide], ≤ 1 µM; for `COc1ccc2c(N(Cc3ccc(-c4ccc(OC)c(C)c4)cc3)C(=O)CC(C)(C)C)nccc2c1` [Compound 4.02, N-((4′-Methoxy-3′-methyl-[1,1′-biphenyl]-4-yl)methyl)-N-(6-methoxyisoquinolin-1-yl)-3,3-dimethylbutanamide], ≤ 1 µM. For the compound `COc1ccc(-c2ccc(CN(C(=O)CC(C)(C)C)c3ncnc4ccccc34)cc2)cc1C` [Compound 4.01, N-((4′-Methoxy-3′-methyl-[1,1′-biphenyl]-4-yl)methyl)-3,3-dimethyl-N-(quinazolin-4-yl)butanamide], the EC50 was in the range of 1 to 10 µM. With `COc1ccc(-c2ccc(CN(C(=O)CC(C)(C)C)c3nccc4cc(N5CC(CO)C5)ccc34)cc2)cc1C` [Compound 6.15, N-(6-(3-(Hydroxymethyl)azetidin-1-yl)isoquinolin-1-yl)-N-((4′-methoxy-3′-methyl-[1,1′-biphenyl]-4-yl)methyl)-3,3-dimethylbutanamide], the EC50 was ≤ 1 µM. With `COc1ccc(-c2ccc(CN(C(=O)CC(C)(C)C)c3nccc4c(OC)cccc34)cc2)cc1C` [Compound 11.04, N-((4′-Methoxy-3′-methyl-[1,1′-biphenyl]-4-yl)methyl)-N-(5-methoxyisoquinolin-1-yl)-3,3-dimethylbutanamide], the EC50 is 1 to 10 µM. With `COc1ccc(-c2ccc(CN(C(=O)CC(C)(C)C)c3nccc4cc(OC5CCC(O)C5)ccc34)cc2)cc1C` (stereo not drawn) [Compound 10.02, N-(6-((3-Hydroxycyclopentyl)oxy)iso-quinolin-1-yl)-N-((4′-methoxy-3′-methyl-[1,1′-biphenyl]-4-yl)methyl)-3,3-dimethylbutanamide], the EC50 was ≤ 1 µM. As for `CCOc1ccc2c(N(Cc3ccc(-c4ccc(OC)c(C)c4)cc3)C(=O)CC(C)(C)C)nccc2c1` [Compound 11, N-(6-Ethoxyisoquinolin-1-yl)-N-((4′-methoxy-3′-methyl-[1,1′-biphenyl]-4-yl)methyl)-3,3-dimethylbutanamide], the EC50 was ≤ 1 µM. As to `COc1ccc(-c2ccc(CN(C(=O)CC(C)(C)C)c3nccc4cc(N5CCC(F)C5)ccc34)cc2)cc1C` (stereo not drawn) [Compound 6.12, N-(6-(3-Fluoropyrrolidin-1-yl)isoquinolin-1-yl)-N-((4′-methoxy-3′-methyl-[1,1′-biphenyl]-4-yl)methyl)-3,3-dimethylbutanamide], the EC50 was ≤ 1 µM. Turning to `COc1ccc(-c2ccc(CN(C(=O)CC(C)(C)C)c3nccc4ccsc34)cc2)cc1C` [Compound 4.04, N-((4′-Methoxy-3′-methyl-[1,1′-biphenyl]-4-yl)methyl)-3,3-dimethyl-N-(thieno[2,3-c]pyridine-7-yl)butanamide], the EC50 was ≤ 1 µM. To `COc1ccc(-c2ccc(CN(C(=O)CC(C)(C)C)c3nccc4cc(OC5CNC5)ccc34)cc2)cc1C` [Compound 28.01, N-(6-(Azetidin-3-yloxy)isoquinolin-1-yl)-N-((4′-methoxy-3′-methyl-[1,1′-biphenyl]-4-yl)methyl)-3,3-dimethylbutanamide] belongs 1 to 10 µM. For `COc1ccc(-c2ccc(CN(C(=O)CC(C)(C)C)c3nccc4cc(N5CCC(O)CC5)ccc34)cc2)cc1C` [Compound 6.18, N-(6-(4-Hydroxypiperidin-1-yl)isoquinolin-1-yl)-N-((4′-methoxy-3′-methyl-[1,1′-biphenyl]-4-yl)methyl)-3,3-dimethylbutanamide] the value was ≤ 1 µM; for `COC(=O)c1cc(CN(C(=O)CC(C)(C)C)c2nccc3cc(OC)ccc23)ccc1-c1ccc(OC)c(C)c1` [Compound 20.02, Methyl 4′-methoxy-4-((N-(6-methoxyisoquinolin-1-yl)-3,3-dimethylbutanamido)methyl)-3′-methyl-[1,1′-biphenyl]-2-carboxylate], ≤ 1 µM. On to `COc1ccc(-c2ccc(CN(C(=O)CC(C)(C)C)c3nccc4cc(CCCO)ccc34)cc2)cc1C` [Compound 24, N-(6-(3-Hydroxypropyl)isoquinolin-1-yl)-N-((4′-methoxy-3′-methyl-[1,1′-biphenyl]-4-yl)methyl)-3,3-dimethylbutanamide], for which the EC50 was ≤ 1 µM.
